Assay results reported in US10202391B2, “Chemical compounds” (AstraZeneca AB, priority 2015, dated 2019).
pIC50: −log10 of the molar value.

What was measured:
[1] = target: T1, ERK2 (Homo sapiens, UniProt P28482); assay: ERK2 Rapidfire Mass Spectrometry Inhibition of Catalysis Assay; format: biochemical; settings: 1.2 nM ERK2, 16 μM Erktide, 120 μM ATP (measured Km), 15 minute pre-incubation; read-out: ERK2 Mass Spectrometry Enzyme IC50
T1 construct: made in house
Experimental: (§1) All compounds or DMSO (dimethyl sulphoxide) for the ERK2 Mass Spectrometry and A375 phospho-p90RSK assays were dispensed from source plates containing compounds at 10 mM in 100% (v/v) DMSO or 100% DMSO, directly into assay plates using an Echo 555 Acoustic dispenser (Labcyte Inc™). Depending on the assay, two separate plate preparations were followed. In Workflow A, 10 mM compound stocks were diluted 1:100 using a fixed-tip 96-head Agilent VPrep liquid handler (Agilent Technologies, Santa Clara, Calif.) to give four intermediate dilutions (10 mM, 100 μM, 1 μM, 10 nM). In Workflow B, 10 mM compound stocks were diluted 1:10 using a Tecan Freedom Evo (Tecan Group Ltd., Switzerland), and then 1:100 using the Echo 555 and Labcyte LX to produce three intermediate dilutions across three Labcyte qualified source plates (1 mM, 10 μM, 100 nM). These intermediate dilution plates were then used by the Echo 555 to generate final assay-ready compound plates with a 12 point dose range (10, 3, 1, 0.25, 0.1, 0.03, 0.01, 0.0025, 0.001, 0.0003, 0.0001, 0.0000125 μM) in order to calculate compound IC50s, with a total DMSO concentration in the assay of 1%. For the ERK2 Mass Spectrometry assay Workflow B was used. For the A375 phospho-p90RSK cell assay, the intermediate 1:100 dilution plate described in Workflow A was used by the Echo to dispense compounds and DMSO directly into the cell plates with a 12 point dose range (30, 10, 3.125, 1.25, 0.3, 0.1, 0.03125, 0.0125, 0.003, 0.001, 0.0003125, 0.00003 μM) in order to calculate compound IC50's, with a total DMSO concentration in the assay of 0.3%.
ERK2 Rapidfire Mass Spectrometry Inhibition of Catalysis Assay
MEK U911-activated ERK2 protein was expressed and purified in-house. Enzyme and substrate solutions were made up in assay buffer consisting of 50 mM Tris (pH 7.5), 10 mM MgCl2, 0.1 mM EGTA (ethylene glycol tetraacetic acid), 10 mM DTT (dithiothreitol) and 0.01% (v/v) CHAPS (3-[(3-Cholamidopropyl)dimethylammonio]-1-propanesulfonate). 1.2 nM ERK2 protein was prepared in assay buffer and 10 μl was dispensed into each well of a polypropylene, 384-well plate (#781201, Greiner) containing test and reference control compounds. […] The reaction was allowed to progress for 20 minutes at room temperature before being quenched by the addition of 80 al 1% (v/v) formic acid. The assay plates were then run on the RapidFire Mass Spectrometry platform (Agilent) to measure substrate (unphosphorylated Erktide) and product (phosphorylated Erktide) levels. Data was analysed and IC50's (half maximal inhibitory concentration) were calculated using Genedata Screener® software.

[2] = tested on: phospho-p90RSK in A375 cell line; assay: A375 Phospho-p90RSK Cellular Assay; format: cell-based, human; settings: Homo sapiens, A-375; A375 cells, 2 hours incubation
Experimental: as §1
A375 Phospho-p90RSK Cellular Assay
A375 cells were cultured in cell media composed of DMEM (Dulbecco's modified Eagle's medium), 10% (v/v) Foetal Calf Serum and 1% (v/v) L-Glutamine. After harvesting, cells were dispensed into black, 384-well Costar plates (#3712, Corning) to give 2400 cells per well in a total volume of 40 μl cell media, and were incubated overnight at 37° C., 90% relative humidity and 5% CO2 in a rotating incubator. Test compounds and reference controls were dosed directly into the cell plates using a Labcyte Echo 555 acoustic dispenser. The cell plates were then incubated for 2 hours at 37° C. before being fixed by the addition of 20 μl 12% formaldehyde in PBS/A (4% final concentration), followed by a 20 minute room temperature incubation, and then a 2× wash with 150 μl PBS/A (phosphate buffered saline containing albumin) using a BioTek ELx405 platewasher. Cells were permeabilised with 20 μl 0.1% Triton X-100 in PBS/A for 20 minutes at room temperature, and then washed 1× with 100 μl PBS/A. Primary phospho-p90RSK (Thr359) (D1E9) rabbit monoclonal antibody (#8753, Cell Signaling Technology) was diluted 1:1000 in assay buffer (0.05% (v/v) Tween, 5% (v/v) Foetal Calf Serum, in PBS/A), 20 μl added per well, and plates were incubated at 4° C. overnight. Cell plates were washed 2× with 200 μl PBS/T (phosphate buffered saline containing Tween-20), then 20 μl 1:500 dilution in assay buffer of Alexa Fluor® 647 goat anti-rabbit IgG secondary antibody (#A31573, Molecular Probes, Life Technologies), with a 1:5000 dilution of Hoechst 33342, was added per well. Following a 90 minute incubation at room temperature, plates were washed 2× with 200 μl PBS/T, and 40 μl PBS/A was added per well. Stained cell plates were covered with black lid seals, and then read on a Cellomics ArrayScan™ VTI imaging platform (Thermo Scientific), using an XF53 filter with 10× objective, with a LED light source set-up to analyse nuclear staining with Hoechst 33342 (405 nm) and secondary antibody staining of phospho-p90RSK (647 nm). Data was analysed and IC50's were calculated using Genedata Screener® software.

T1 sequence (P28482 whole entry): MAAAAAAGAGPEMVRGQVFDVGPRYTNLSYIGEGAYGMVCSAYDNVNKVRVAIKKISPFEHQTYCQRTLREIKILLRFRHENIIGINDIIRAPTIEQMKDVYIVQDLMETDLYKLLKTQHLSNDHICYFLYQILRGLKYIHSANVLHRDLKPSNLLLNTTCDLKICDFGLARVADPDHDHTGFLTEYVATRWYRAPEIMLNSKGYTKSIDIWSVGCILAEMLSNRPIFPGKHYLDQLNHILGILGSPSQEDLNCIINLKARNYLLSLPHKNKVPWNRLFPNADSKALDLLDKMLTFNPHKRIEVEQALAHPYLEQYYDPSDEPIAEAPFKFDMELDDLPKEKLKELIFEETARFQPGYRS

| SMILES | pIC50 [1] | pIC50 [2] |
| --- | --- | --- |
| COc1cccc(CN2C(=O)c3nc(-c4nc(Nc5ccnn5C)ncc4Cl)cn3C[C@@H]2C)c1 [Example 7, (S)-2-(5-Chloro-2-((1-methyl-1H-pyrazol-5-yl)amino)pyrimidin-4-yl)-7-(3-methoxybenzyl)-6-methyl-6,7-dihydroimidazo[1,2-a]pyrazin-8(5H)-one] | 9.30 | 7.42 |
| C[C@H]1Cn2cc(-c3nc(Nc4ccnn4C)ncc3Cl)nc2C(=O)N1Cc1cccc(C(F)(F)F)n1 [Example 10] | 8.96 | 7.26 |
| COC[C@H]1Cn2cc(-c3nc(Nc4ccnn4C)ncc3C)nc2C(=O)N1Cc1cc(F)cc(F)c1 [Example 40, (R)-7-(3,5-difluorobenzyl)-6-(methoxymethyl)-2-(5-methyl-2-((1-methyl-1H-pyrazol-5-yl)amino)pyrimidin-4-yl)-6,7-dihydroimidazo[1,2-a]pyrazin-8(5H)-one] | 8.96 | 7.49 |
| C[C@H]1Cn2cc(-c3ccnc(Nc4ccnn4C)n3)nc2C(=O)N1Cc1ccc(F)c(F)c1 [Example 4, (S)-7-(3,4-Difluorobenzyl)-6-methyl-2-(2-((1-methyl-1H-pyrazol-5-yl)amino)pyrimidin-4-yl)-6,7-dihydroimidazo[1,2-a]pyrazin-8(5H)-one] | 8.74 | 6.20 |

More lines, now with the values ahead:

| pIC50 [1] | pIC50 [2] | SMILES |
| --- | --- | --- |
| 8.96 | 6.68 | C[C@H]1Cn2cc(-c3nc(Nc4ccnn4C)ncc3Cl)nc2C(=O)N1Cc1ccnc(C(F)(F)F)n1 [Example 8, (S)-2-(5-chloro-2-((1-methyl-1H-pyrazol-5-yl)amino)pyrimidin-4-yl)-6-methyl-7-((2-(trifluoromethyl)pyrimidin-4-yl)methyl)-6,7-dihydroimidazo[1,2-a]pyrazin-8(5H)-one] |
| 9.15 | 7.19 | Cc1cnc(Nc2ccnn2C)nc1-c1cn2c(n1)C(=O)N(Cc1cccc(C(F)F)n1)[C@H](C)C2 [Example 37, (R)-7-((6-(Difluoromethyl)pyridin-2-yl)methyl)-6-methyl-2-(5-methyl-2-((1-methyl-1H-pyrazol-5-yl)amino)pyrimidin-4-yl)-6,7-dihydroimidazo[1,2-a]pyrazin-8(5H)-one] |
| 9.10 | 7.11 | Cc1cnc(Nc2ccnn2C)nc1-c1cn2c(n1)C(=O)N(Cc1cccc(C(F)(F)F)n1)[C@@H](C)C2 [Example 27, (S)-6-Methyl-2-(5-methyl-2-((1-methyl-1H-pyrazol-5-yl)amino)pyrimidin-4-yl)-7-((6-(trifluoromethyl)pyridin-2-yl)methyl)-6,7-dihydroimidazo[1,2-a]pyrazin-8(5H)-one] |
| 9.05 | 8.28 | COC[C@H]1Cn2cc(-c3nc(Nc4ccnn4C)ncc3C)nc2C(=O)N1Cc1cccc(Cl)c1 [Example 17, (R)-7-(3-Chlorobenzyl)-6-(methoxymethyl)-2-(5-methyl-2-((1-methyl-1H-pyrazol-5-yl)amino)pyrimidin-4-yl)-6,7-dihydroimidazo[1,2-a]pyrazin-8(5H)-one] |
| 9.05 | 7.00 | Cc1cnc(Nc2ccnn2C)nc1-c1cn2c(n1)C(=O)N(Cc1cc(C(F)(F)F)ncn1)[C@@H](C)C2 [Example 32, (S)-6-Methyl-2-(5-methyl-2-((1-methyl-1H-pyrazol-5-yl)amino)pyrimidin-4-yl)-7-((6-(trifluoromethyl)pyrimidin-4-yl)methyl)-6,7-dihydroimidazo[1,2-a]pyrazin-8(5H)-one] |
| 9.05 | 6.89 | Cc1cnc(Nc2ccnn2C)nc1-c1cn2c(n1)C(=O)N(Cc1cc(C(F)(F)F)ccn1)[C@@H](C)C2 [Example 29, (S)-6-Methyl-2-(5-methyl-2-((1-methyl-1H-pyrazol-5-yl)amino)pyrimidin-4-yl)-7-((4-(trifluoromethyl)pyridin-2-yl)methyl)-6,7-dihydroimidazo[1,2-a]pyrazin-8(5H)-one] |
